The subject of assay [1] is cross-linked microtubules. Nature of the assay: Concentration of taxoid binding sites by sedimentation and spectrophotometric measurement of Flutax-2. More on the design: species or system bovine. Particulars: 5 μM Flutax-2, GAB-GDP buffer, 25° C. The method, then:
Their concentration of total tubulin was measured after diluting them in 1% SDS using an extinction coefficient of 107,000 M^−1 cm^−1 at 275 nm (Diaz, J. F. and Andreu, J. M.). […] The concentration of binding sites of taxoid was determined by addition of growing concentrations of microtubules cross-linked to 5 μM Flutax-2 in the GAB-GDP buffer, sedimentation (Diaz, J. F. et al., 50,000 rpm in a Beckman TLA 120 rotor at 25° C.) and spectrophotometric measurement of Flutax-2. It was observed that the preparations of cross-linked microtubules bound 0.75±0.05 of Flutax-2 per total tubulin (in other words, a minimum of 95% of the bound tubulin was active binding this ligand). The control measurements using ^3H-paclitaxel and liquid scintillation gave values similar to Flutax-2. Once the anisotropy values of Flutax bound to microtubule and free were determined, the number of sites could also be determined by valuation of diluted solutions of microtubules cross-linked with Flutax-2 (see further below). The concentration of binding sites of taxoids of the preparations of cross-linked microtubules turned out to be stable in liquid nitrogen, decaying at speeds between 0.02 and 0.05 day^−1 at 4° C. (mean lives of five and two weeks respectively). The cross-linked microtubules were used within one average life starting from the preparation.

For assay [2], the system named is paclitaxel binding site of microtubules. Nature of the assay: Displacement of 3H-paclitaxel from microtubules by sedimentation and scintillation count. Particulars: 1 mg mL^−1 bovine serum albumin present. An excerpt:
In a series of control measurements, the displacement of the interaction of ^3H-paclitaxel with microtubules by baccatine III and Flutax-2 was evidenced by sedimentation and scintillation count. […] This confirmed that baccatine III is recognised by the paclitaxel binding site of microtubules. Nevertheless, with the aim of having the majority of the radioactive ^3H-paclitaxel tracer in solution, instead of being absorbed into the polycarbonate tube of the table-top ultracentrifuge, it was necessary to include 1 mg mL^−1 of bovine serum albumin, which binds the paclitaxel (keeping it available for interaction with the microtubules) and also the Flutax-2 (decreasing its apparent affinity). These adsorption processes make it impossible to have any direct rigorous measurement of the affinity of the binding of paclitaxel to microtubules in our hands, and therefore of the affinity of its competitors using paclitaxel as a reference ligand in these diluted tests. The additional disadvantages of the binding tests of ^3H-paclitaxel in comparison with the homogeneous test of the anisotropy of fluorescent taxoid are the operations of centrifugation, separation and radioactive measurement that are required. […]
Background: Loss of bound radioactivity is the signal in a displacement assay; it reports binding, not function.

Assay [3] shares this test system. Nature of the assay: Binding of Flutax-2 to cross-linked microtubules by fluorescence anisotropy. Also noted: species or system bovine. Particulars: GAB-GDP buffer at 25° C. The method, then: The intensity of fluorescence of Flutax-2 changes very little with the binding to microtubules. There is a small change in the excitation maximum from 494 nm to 495 nm (isosbestic point at 500 nm ) and a blue shift in emission from 523 nm to 520 nm (not shown here; isosbestic point at 525 nm; Diaz, J. F. et al.). […] The excitation anisotropy spectrum of a 50 nM solution of microtubule sites/Flutax-2 was compared with the spectrum of a similar solution in which the binding sites were blocked by an excess of paclitaxel and of free Flutax-2. […] The anisotropy values determined for the 495 nm band (emission 520 nm; GAB buffer containing glycerol, 25° C.) were: free Flutax-2 (50 nm ), rmin=0.055; in the presence of microtubules blocked with paclitaxel, r=0.060; Flutax-2 specifically bound to the microtubules, rmax=0.29 (the last was determined by valuation of 50 nm Flutax-2 with growing concentrations of microtubules). These changes are consistent with a strong immobilisation of the fluorophore by the binding. […]
Tubulin from bovine brain was purified and stored, and its concentration was measured as has been described (Andreu, J. M. et al.). […]
Fluorescence spectra were obtained corrected with a Fluorolog-3-221 photon count instrument (Jobin Yvon-Spex, Longlumean, France), with an emission bandwidth of 5 nm and excitation of […] at 25° C. […] The multiple measurements of anisotropy were made with a PolarStar microplate reader (BMG Labtechnologies, Offenburg, Germany) at 25° C. The solutions were excited with 200 pulses of vertically polarised light (band-pass filter 485-P, 480-492 nm ) and the emission was simultaneously analysed with vertical and horizontal polarisation filters (band-pass 520-P, 515-550 nm ). […] The values of well blanks with microtubules and without Flutex-2 were subtracted from the values of fluorescence intensity (the blanks typically represented less than 4% of the measurement). […]
For orientation: Fluorescence polarisation rises when a labelled molecule tumbles more slowly, as on binding a larger partner.

As for `CC(=O)O[C@H]1C(=O)[C@]2(C)[C@@H](OC(=O)[C@H](C)NC(=O)c3ccc4c(c3)C(=O)OC43c4cc(F)c(O)cc4Oc4cc(O)c(F)cc43)C[C@H]3OC[C@@]3(OC(C)=O)[C@H]2[C@H](OC(=O)c2ccccc2)[C@]2(O)C[C@H](OC(=O)[C@H](O)[C@@H](NC(=O)c3ccccc3)c3ccccc3)C(C)=C1C2(C)C` [Flutax-2, 7-O-[N-(2,7-difluoro-4′-fluoresceincarbonyl)-L-alanyl]paclitaxel], the “Flutax-2 bound per total tubulin” value in assay [1] turned out to be 0.75±0.05. For the same compound, the “apparent affinity compared with fluorescence anisotropy tests” value in assay [2] is “seven times lower”. Further, in assay [3], the “equilibrium binding constant of Flutax-2 (FIG. 2 legend)” value worked out at 1.5e+08 M⁻¹ and the equilibrium constant of the binding Kb (binding isotherm from change of anisotropy) was found to be 1.15e+08 M⁻¹.
